One experiment has as its target KRAS G12S (Homo sapiens, UniProt P01116+P62937, G12S). Kind of experiment: Disruption of BRAF RBD interaction with Ras (FRET / MOA assay, with Cyclophilin A). Type of experiment: biochemical. To be noted: read-out: KRAS G12S FRET data, IC50. Put shortly:
(§1)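 Cyclophilin A-dependent ternary complex assay. K-Ras loaded with nucleotide; BRAF RBD as effector. Cpd top 30 μM final, 3 h at 25 °C. Readout: TR-FRET ratio, IC50.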

The target of the next experiment is KRAS G12C (Homo sapiens, UniProt P01116+P62937, G12C). The description is as above. The format is biochemical. To be noted: read-out: KRAS G12C FRET data, IC50. Put shortly:
as §1

The next experiment deals with KRAS G12V (Homo sapiens, UniProt P01116+P62937, G12V). The description is as above. Type of experiment: biochemical. To be noted: KRAS G12V; read-out: KRAS G12V FRET data IC50. Put shortly: as §1
KRAS G12V, sequence (P01116 1-169 isoform P01116-2 G12V limits assumed): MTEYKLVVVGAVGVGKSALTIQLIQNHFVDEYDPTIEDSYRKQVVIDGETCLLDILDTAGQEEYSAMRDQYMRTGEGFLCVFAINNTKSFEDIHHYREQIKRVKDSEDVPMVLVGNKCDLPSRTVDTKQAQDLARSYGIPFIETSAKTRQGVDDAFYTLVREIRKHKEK
KRAS G12V, sequence (P62937 whole entry): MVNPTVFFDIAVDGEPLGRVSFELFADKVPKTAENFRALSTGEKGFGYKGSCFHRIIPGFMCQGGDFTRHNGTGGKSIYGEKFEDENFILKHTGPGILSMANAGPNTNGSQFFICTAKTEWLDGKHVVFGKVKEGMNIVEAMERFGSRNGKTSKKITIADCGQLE
A further experiment concerns the target KRAS WT (Homo sapiens, UniProt P01116+P62937). The description is as above. The format is biochemical. To be noted: KRAS WT; read-out: KRAS WT FRET data IC50. The method, boiled down:
as §1

For another experiment, the target named is NRAS G12C (Homo sapiens, UniProt P01111+P62937, G12C). Described as above. Type of experiment: biochemical. The conditions noted are these: NRAS G12C; read-out: NRAS G12C FRET data IC50.
NRAS G12C, sequence (P01111 whole entry G12C): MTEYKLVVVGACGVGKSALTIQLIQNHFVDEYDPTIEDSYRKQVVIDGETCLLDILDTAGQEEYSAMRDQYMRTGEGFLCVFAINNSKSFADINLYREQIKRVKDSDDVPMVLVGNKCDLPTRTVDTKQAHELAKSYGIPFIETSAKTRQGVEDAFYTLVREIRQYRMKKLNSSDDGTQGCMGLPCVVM
NRAS G12C, sequence (P62937 whole entry): as the sequence (P62937 whole entry) above
A further experiment addresses KRAS G12D (Homo sapiens, UniProt P01116+P62937, G12D). Described as above. The format is biochemical. The conditions noted are these: read-out: KRAS G12D FRET data, IC50. Put shortly: as §1
Another experiment deals with KRAS G13C (Homo sapiens, UniProt P01116+P62937, G13C). The experiment is described as above. Type of experiment: biochemical. The conditions noted are these: read-out: KRAS G13C FRET data, IC50. The method, boiled down:
as §1

The target in a further experiment is KRAS G13D (Homo sapiens, UniProt P01116+P62937, G13D). Described as above. The format is biochemical. The conditions noted are these: KRAS G13D; read-out: KRAS G13D FRET data IC50. The method, boiled down: as §1
KRAS G13D, sequence (P01116 1-169 isoform P01116-2 G13D limits assumed): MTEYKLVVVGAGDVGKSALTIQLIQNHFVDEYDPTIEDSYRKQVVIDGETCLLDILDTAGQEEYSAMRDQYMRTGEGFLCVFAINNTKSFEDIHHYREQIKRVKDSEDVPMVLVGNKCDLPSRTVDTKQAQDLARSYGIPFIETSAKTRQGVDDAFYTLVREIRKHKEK
KRAS G13D, sequence (P62937 whole entry): as the sequence (P62937 whole entry) above
Another experiment addresses NRAS Q61K (Homo sapiens, UniProt P01111+P62937, Q61K). The experiment is described as above. The format is biochemical. The conditions noted are these: NRAS Q61K; read-out: NRAS Q61K FRET data IC50. The method, boiled down: (§2)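 IC50 reflects compound-driven Ras:Cyclophilin A ternary complex displacing BRAF RBD, read as lowered TR-FRET ratio relative to DMSO after Eu anti-His (10 nM) and APC anti-GST (50 nM) detection for 1.5 h. Prior incubation 3 h, 25° C, with 12.5 nM GMPPNP-loaded Ras, 50 nM BRAF RBD, 25 μM Cyclophilin A; top compound 30 μM.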

The next experiment deals with NRAS Q61R (Homo sapiens, UniProt P01111+P62937, Q61R). The description is as above. Type of experiment: biochemical. To be noted: NRAS Q61R; read-out: NRAS Q61R FRET data IC50. The method, boiled down:
as §2

For a further experiment, the target named is NRAS WT (Homo sapiens, UniProt P01111+P62937). The description is as above. The conditions noted are these: NRAS WT; read-out: NRAS WT FRET data IC50. The format is biochemical. Put shortly: as §2
NRAS WT, sequence (P01111 whole entry): as the sequence (P01111 whole entry G12C) above, with C12G counted along it
NRAS WT, sequence (P62937 whole entry): as the sequence (P62937 whole entry) above
Another experiment has as its target KRAS Q61H (Homo sapiens, UniProt P01116+P62937, Q61H). The experiment is described as above. The format is biochemical. The conditions noted are these: KRAS Q61H; read-out: KRAS Q61H FRET data IC50. Put shortly:
as §2

For the next experiment, the system named is Capan-1 (K-Ras G12V). The experiment is described as follows: CellTiter-Glo cell viability assay, 5-day treatment. Type of experiment: cell-based. To be noted: Homo sapiens, CAPAN-1, 120 h, 5-day treatment; read-out: Capan-1 Cell Viability assay data (K-Ras G12V, IC50). Put shortly: (§3)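 Luminescence read-out after 5 days of compound exposure, with plates first brought to room temperature for roughly 30 minutes. Values are percent of averaged DMSO wells, fitted by four-parameter logistic regression.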
For orientation: In ATP-based viability assays light output follows the ATP content of the culture.

In a further experiment the test system is NCI-H358 (K-Ras G12C). The description is as above. Type of experiment: cell-based. To be noted: Homo sapiens, NCI-H358, 120 h, 5-day treatment; read-out: H358 Cell Viability assay data (K-Ras G12C, IC50). Put shortly:
as §3

KRAS G13C, sequence (P01116 1-169 isoform P01116-2 G13C): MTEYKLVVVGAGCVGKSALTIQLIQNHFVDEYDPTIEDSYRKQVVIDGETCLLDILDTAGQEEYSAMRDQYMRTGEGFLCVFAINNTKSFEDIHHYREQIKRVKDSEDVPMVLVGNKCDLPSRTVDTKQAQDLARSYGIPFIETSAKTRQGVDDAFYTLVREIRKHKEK
KRAS G13C, sequence (P62937 whole entry): as the sequence (P62937 whole entry) above
KRAS Q61H, sequence (P01116 1-169 isoform P01116-2 Q61H limits assumed): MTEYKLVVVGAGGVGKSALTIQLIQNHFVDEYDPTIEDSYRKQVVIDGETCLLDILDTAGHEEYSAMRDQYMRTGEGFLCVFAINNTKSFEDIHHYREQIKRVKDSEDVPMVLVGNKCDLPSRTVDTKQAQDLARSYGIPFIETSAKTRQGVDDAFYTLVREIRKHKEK
KRAS Q61H, sequence (P62937 whole entry): as the sequence (P62937 whole entry) above
KRAS WT, sequence (P01116 1-169 isoform P01116-2 limits assumed): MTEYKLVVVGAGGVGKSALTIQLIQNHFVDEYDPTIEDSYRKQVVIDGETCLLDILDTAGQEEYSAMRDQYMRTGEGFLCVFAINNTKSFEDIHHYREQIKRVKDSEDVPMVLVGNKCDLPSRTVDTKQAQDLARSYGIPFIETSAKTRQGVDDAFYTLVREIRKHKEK
KRAS WT, sequence (P62937 whole entry): as the sequence (P62937 whole entry) above
NRAS Q61K, sequence (P01111 whole entry Q61K): as the sequence (P01111 whole entry G12C) above, with C12G, Q61K counted along it
NRAS Q61K, sequence (P62937 whole entry): as the sequence (P62937 whole entry) above
KRAS G12C, sequence (P01116 1-169 isoform P01116-2 G12C): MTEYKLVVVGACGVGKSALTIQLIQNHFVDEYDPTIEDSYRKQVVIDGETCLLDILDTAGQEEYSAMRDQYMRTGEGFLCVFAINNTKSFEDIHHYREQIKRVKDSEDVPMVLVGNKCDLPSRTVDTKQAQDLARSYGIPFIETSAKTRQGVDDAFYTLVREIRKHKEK
KRAS G12C, sequence (P62937 whole entry): as the sequence (P62937 whole entry) above
KRAS G12D, sequence (P01116 1-169 isoform P01116-2 G12D limits assumed): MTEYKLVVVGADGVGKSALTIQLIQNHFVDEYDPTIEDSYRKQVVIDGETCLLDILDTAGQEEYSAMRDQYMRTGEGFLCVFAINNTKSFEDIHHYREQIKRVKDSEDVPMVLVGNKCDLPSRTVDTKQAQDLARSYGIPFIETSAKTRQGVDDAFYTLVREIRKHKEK
KRAS G12D, sequence (P62937 whole entry): as the sequence (P62937 whole entry) above
KRAS G12S, sequence (P01116 1-169 isoform P01116-2 G12S limits assumed): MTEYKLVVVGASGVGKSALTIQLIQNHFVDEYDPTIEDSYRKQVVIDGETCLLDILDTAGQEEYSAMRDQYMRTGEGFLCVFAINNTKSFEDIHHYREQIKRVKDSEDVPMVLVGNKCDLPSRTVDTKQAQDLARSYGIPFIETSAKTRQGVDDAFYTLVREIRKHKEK
KRAS G12S, sequence (P62937 whole entry): as the sequence (P62937 whole entry) above
NRAS Q61R, sequence (P01111 whole entry Q61R): as the sequence (P01111 whole entry G12C) above, with C12G, Q61R counted along it
NRAS Q61R, sequence (P62937 whole entry): as the sequence (P62937 whole entry) above

`CCn1c(-c2cccnc2[C@H](C)OC)c2c3cc(ccc31)-c1csc(n1)C[C@H](NC(=O)[C@H](C(C)C)N(C)C(=O)N1CC3(CC(N(C)CCOC)C3)C1)C(=O)N1CCC[C@H](N1)C(=O)OCC(C)(C)C2` (atropisomer, axis not shown) [Example A532]: the IC50 (in general, the concentration needed to halve the response being measured) at KRAS G12S lay within 100 to 1000 nM; at KRAS G12C, 100 to 1000 nM; on KRAS G12V, 100 to 1000 nM; on KRAS WT, 100 to 1000 nM; at NRAS G12C, 100 to 1000 nM; on KRAS G12D it was 1000 to 10000 nM. Moreover, the IC50 was 100 to 1000 nM at KRAS G13C; 100 to 1000 nM on KRAS G13D; 10 to 100 nM on NRAS Q61K; 100 to 1000 nM at NRAS Q61R; 100 to 1000 nM on NRAS WT; 100 to 1000 nM at KRAS Q61H. In addition, the IC50 in the experiment with Capan-1 (K-Ras G12V) and with NCI-H358 (K-Ras G12C) was 10 to 100 nM each time.
Consider `CCn1c(-c2cccnc2[C@H](C)OC)c2c3cc(ccc31)-c1csc(n1)C[C@H](NC(=O)[C@H](C(C)C)N(C)C(=O)N1CCC3(CN(C)C3)C1)C(=O)N1CCC[C@H](N1)C(=O)OCC(C)(C)C2` (atropisomer, axis not shown) [Example A503], for which the half-maximal inhibitory concentration (IC50) on KRAS G12S lay within 10 to 100 nM; at KRAS G12C, 10 to 100 nM; at KRAS G12V, 100 to 1000 nM; on KRAS WT, 10 to 100 nM; at NRAS G12C it was 10 to 100 nM; at KRAS G12D, 100 to 1000 nM. For the same compound, the IC50 on KRAS G13C is 100 to 1000 nM; on KRAS G13D it was 100 to 1000 nM; at NRAS Q61K, 10 to 100 nM; on NRAS Q61R, 10 to 100 nM; on NRAS WT, 10 to 100 nM; at KRAS Q61H it was 10 to 100 nM. For the same compound, the IC50 in the experiment on Capan-1 (K-Ras G12V) and in the experiment with NCI-H358 (K-Ras G12C) was 10 to 100 nM in each case.
As for `CCn1c(-c2cccnc2[C@H](C)OC)c2c3cc(ccc31)-c1csc(n1)C[C@H](NC(=O)[C@H](C(C)C)N(C)C(=O)N1CCOC[C@@H]1c1ccccc1)C(=O)N1CCC[C@H](N1)C(=O)OCC(C)(C)C2` [Example A604], the IC50 at KRAS G12S, at KRAS G12C, at KRAS G12V, at KRAS WT, at NRAS G12C and at KRAS G12D was 1000 to 10000 nM in each case. Moreover, the IC50 on KRAS G13C was in the range of 1000 to 10000 nM; on KRAS G13D, 1000 to 10000 nM; on NRAS Q61K it was 100 to 1000 nM; at NRAS Q61R it was 1000 to 10000 nM; at NRAS WT, 1000 to 10000 nM; on KRAS Q61H, 100 to 1000 nM. For the same compound, the figures for the IC50 with Capan-1 (K-Ras G12V) and in the experiment with NCI-H358 (K-Ras G12C) were 1000 to 10000 nM and 100 to 1000 nM, respectively.
`CCn1c(-c2cccnc2[C@H](C)OC)c2c3cc(ccc31)-c1csc(n1)C[C@H](NC(=O)[C@H](C(C)C)N(C)C(=O)N1CC3(CCCO3)C1)C(=O)N1CCC[C@H](N1)C(=O)OCC(C)(C)C2` (atropisomer, axis not shown) [Example A522]: the half-maximal inhibitory concentration (IC50) is 100 to 1000 nM on KRAS G12S; 100 to 1000 nM on KRAS G12C; 100 to 1000 nM at KRAS G12V; 100 to 1000 nM at KRAS WT; 100 to 1000 nM on NRAS G12C; 1000 to 10000 nM on KRAS G12D. Besides, the concentration for half-maximal inhibition (IC50) on KRAS G13C was 100 to 1000 nM; on KRAS G13D, 1000 to 10000 nM; on NRAS Q61K it was 10 to 100 nM; on NRAS Q61R, 100 to 1000 nM; at NRAS WT it was 100 to 1000 nM; at KRAS Q61H it was 100 to 1000 nM. For the same compound, the values for the IC50 in the experiment on Capan-1 (K-Ras G12V) and with NCI-H358 (K-Ras G12C) were 100 to 1000 nM and 10 to 100 nM, respectively.
In the case of `CCn1c(-c2cccnc2[C@H](C)OC)c2c3cc(ccc31)-c1csc(n1)C[C@H](NC(=O)[C@H](C1CCCC1)N(C)C(=O)N1CCN(C)CC1)C(=O)N1CCC[C@H](N1)C(=O)OCC(C)(C)C2` [Example A525], the IC50 on KRAS G12S lay within 100 to 1000 nM; on KRAS G12C, 100 to 1000 nM; on KRAS G12V, 100 to 1000 nM; at KRAS WT it was 100 to 1000 nM; at NRAS G12C it was 100 to 1000 nM; at KRAS G12D, 1000 to 10000 nM. The IC50 at KRAS G13C, on KRAS G13D, at NRAS Q61K, on NRAS Q61R, at NRAS WT and on KRAS Q61H was 100 to 1000 nM in each case. The IC50 in the experiment on Capan-1 (K-Ras G12V) and in the experiment with NCI-H358 (K-Ras G12C) was 10 to 100 nM in each case.
